Results as given in ChEMBL document CHEMBL6103639, “Structure-Based Development of 3,4-Fused Tricyclic Benzofuran Derivatives as Polyketide Synthase 13 Inhibitors with Negligible hERG Inhibition” (J Med Chem, 2025).

Assays:
Type in all cases: functional
[1] = test system: Mycobacterium tuberculosis; experiment: Antitubercular activity against Mycobacterium tuberculosis N1640S mutant assessed as reduction in microbial growth by microplate alamar blue assay
[2] = test system: Mycobacterium tuberculosis; experiment: Antitubercular activity against Mycobacterium tuberculosis A1667V mutant assessed as reduction in microbial growth by microplate alamar blue assay
[3] = test system: Mycobacterium tuberculosis; experiment: Antitubercular activity against Mycobacterium tuberculosis D1644G mutant assessed as reduction in microbial growth by microplate alamar blue assay
[4] = test system: Mycobacterium tuberculosis; experiment: Antitubercular activity against Mycobacterium tuberculosis N1640K mutant assessed as reduction in microbial growth by microplate alamar blue assay

| Structure (SMILES) | MIC [1] [µg/mL] | MIC [2] [µg/mL] | MIC [3] [µg/mL] | MIC [4] [µg/mL] |
| --- | --- | --- | --- | --- |
| CN1CN(CC2CC2)Cc2c(O)ccc3oc(-c4ccc(O)cc4)c(c23)C1=O | >64 | >64 | >64 | >64 |
| CN1CN(CC2CCC2)Cc2c(O)ccc3oc(-c4ccc(O)cc4)c(c23)C1=O | >64 | 8 | >64 | >64 |
| CN1CN(C2CCCC2)Cc2c(O)ccc3oc(-c4ccc(O)cc4)c(c23)C1=O | >64 | 32 | >64 | >64 |
